This experiment concerns glycogen synthase. The experiment can be described thus: Glycogen Synthase (GS) Assay. Type of experiment: biochemical. The conditions noted are these: for EC50: compound concentration needed to give 50% maximum activation; for GS SC200: compound concentration needed to stimulate 200% of the enzyme activity. As to the method:
Twelve μL per well of substrate solution containing glycogen (4.32 mg/ml), 2.67 mM UDP-glucose, 21.6 mM phospho(enol)pyruvate and 2.7 mM NADH in 30 mM glycylglycine, pH 7.3 buffer was added into a polystyrene 384-well assay plate (BD Biosciences).
Compound solutions (8 μL/well) at various concentrations (0-300 μM) were added to the assay plate (columns 5-24). Compound solution contains 30 mM glycylglycine, pH 7.3, 40 mM KCl, 20 mM MgCl2, 9.2% DMSO, with (columns 15-24) or without (columns 5-14) 20 mM glucose 6-phosphate.
Enzyme solution (12 μL/well) containing glycogen synthase (16.88 μg/ml), pyruvate kinase (0.27 mg/ml), lactate dehydrogenase (0.27 mg/ml) in 50 mM Tris-HCl, pH 8.0, 27 mM DTT and bovine serum albumin (BSA, 0.2 mg/ml) was added to the assay plate (columns 3-24). As a blank control, enzyme solution without glycogen synthase was added into the top half wells of columns 1-2. To the bottom half wells of columns 1-2 were added a known activator, glucose 6-phosphate (at final concentration 5 mM) in addition to the enzyme solution. The reaction mixture was incubated at room temperature. The assay plate was then read for absorbance at 340 nm on an Envision reader every 3 minutes up to a total of 15 minutes.
The enzyme activity (with or without compound) was calculated by the reaction rate and represented by the optical density change (δOD) per minute. Percent stimulation of glycogen synthase activity by a compound at various concentrations was calculated by the following formula: % stimulation=100*Rs/Rt,
Where Rs is the reaction rate of the enzyme in the presence of compound and Rt is the reaction rate of the enzyme in the absence of compound.
SC200 is defined as the compound concentration that is needed to stimulate 200% of the enzyme activity. EC50 is defined as the compound concentration that is needed to give 50% maximum activation.

As usually defined, the EC50 is the concentration that produces a half-maximal response. Low readings indicate an effect from little substance, high ones a need for much substance.

For the compound `O=C(O)[C@@H]1CCCN1C(=O)c1cccc(COc2ccc(-c3ccc(F)cc3F)cc2)c1` [Example 1, (S)-1-[3-(2′,4′-Difluoro-biphenyl-4-yloxymethyl)-benzoyl]-pyrrolidine-2-carboxylic acid], the EC50 came out at 120 nM and the “GS SC200” value came to 0.02 µM.
With `COc1cc(F)c(F)cc1-c1ccc(OCc2cccc(C(=O)N3CCC[C@H]3C(=O)O)c2)cc1` [Example 2, (S)-1-[3-(4′,5′-Difluoro-2′-methoxy-biphenyl-4-yloxymethyl)-benzoyl]-pyrrolidine-2-carboxylic acid], the EC50 turned out to be 140 nM and the “GS SC200” value is 0.02 µM.
As to `Cc1cc(F)c(F)cc1-c1ccc(OCc2cccc(C(=O)N3CCC[C@H]3C(=O)O)c2)cc1` [Example 3, (S)-1-[3-(4′,5′-Difluoro-2′-methyl-biphenyl-4-yloxymethyl)-benzoyl]-pyrrolidine-2-carboxylic acid], the EC50 turned out to be 40 nM and the “GS SC200” value came out at 0.001 µM.
`Cc1cc(F)c(F)cc1-c1ccc(OCc2cccc(C(=O)N(C)CC(=O)O)c2)cc1` [Example 4, {[3-(4′,5′-Difluoro-2′-methyl-biphenyl-4-yloxymethyl)-benzoyl]-methyl-amino}-acetic acid]: the response was half-maximal at 80 nM (EC50) and the “GS SC200” value came to 0.01 µM.
With `CN(CC(=O)NS(C)(=O)=O)C(=O)c1cccc(COc2ccc(-c3cc(F)c(F)cc3F)cc2)c1` [Example 5, N-(2-Methanesulfonylamino-2-oxo-ethyl)-N-methyl-3-(2′,4′,5′-trifluoro-biphenyl-4-yloxymethyl)-benzamide], the EC50 is 200 nM and the “GS SC200” value was found to be 0.07 µM.
As for `O=C(c1cccc(COc2ccc(-c3cc(F)c(F)cc3F)cc2)c1)N1CCC[C@H]1c1nnn[nH]1` [Example 6, [(S)-2-(1H-Tetrazol-5-yl)-pyrrolidin-1-yl]-[3-(2′,4′,5′-trifluoro-biphenyl-4-yloxymethyl)-phenyl]-methanone], the EC50 is 2100 nM and the “GS SC200” value came out at 0.59 µM.
The like results for `COc1cc(F)c(F)cc1-c1ccc(OCc2cccc(C(=O)N(C)CC(=O)O)c2)cc1` [Example 7, {[3-(4′,5′-Difluoro-2′-methoxy-biphenyl-4-yloxymethyl)-benzoyl]-methyl-amino}-acetic acid] were, in that order, 100 nM and 0.02 µM.
Consider `COc1cc(F)c(F)cc1-c1ccc(OCc2cccc(C(=O)N(CC(=O)O)C(C)(C)C)c2)cc1` [Example 8, {tert-Butyl-[3-(4′,5′-difluoro-2′-methoxy-biphenyl-4-yloxymethyl)-benzoyl]-amino}-acetic acid], for which it took 200 nM to reach a half-maximal effect (EC50) and the “GS SC200” value amounted to 0.01 µM.
The like results for `COc1cc(F)c(F)cc1-c1ccc(OCc2nc(C(=O)N(CC(=O)O)C(C)(C)C)cs2)cc1` [Example 9, {tert-Butyl-[2-(4′,5′-difluoro-2′-methoxy-biphenyl-4-yloxymethyl)-thiazole-4-carbonyl]-amino}-acetic acid] were, in that order, 110 nM and 0.01 µM.
The like results for `CN(CC(=O)O)C(=O)c1cccc(COc2ccc(-c3cc(F)c(F)cc3F)cc2)c1` [Example 10, {Methyl-[3-(2′,4′,5′-trifluoro-biphenyl-4-yloxymethyl)-benzoyl]-amino}-acetic acid] were, in that order, 100 nM and 0.04 µM.
Taken in the same sequence, the figures for `COc1cc(F)c(F)cc1-c1ccc(OCc2cccc(C(=O)N(C)CC(=O)O)c2)cc1F` [Example 11, {Methyl-[3-(2,4′,5′-trifluoro-2′-methoxy-biphenyl-4-yloxymethyl)-benzoyl]-amino}-acetic acid] were 160 nM and 0.01 µM.
With `O=C(NS(=O)(=O)C1CC1)c1cccc(COc2ccc(-c3cc(F)c(F)cc3F)cc2)c1` [Example 12, Cyclopropanesulfonic acid 3-(2′,4′,5′-trifluoro-biphenyl-4-yloxymethyl)-benzoylamide], the EC50 came to 690 nM and the “GS SC200” value came to 0.14 µM.
Consider `COc1cc(F)c(F)cc1-c1ccc(OCc2cc(C(=O)N(C)CC(=O)O)ccc2F)cc1` [Example 13, {[3-(4′,5′-Difluoro-2′-methoxy-biphenyl-4-yloxymethyl)-4-fluoro-benzoyl]-methyl-amino}-acetic acid], for which a half-maximal response (EC50) required 80 nM and the “GS SC200” value came to 0.004 µM.
Regarding `CN(CC(=O)O)C(=O)c1cccc(COc2ccc(-c3cc(F)c(F)cc3F)cc2F)c1` [Example 14], the EC50 was determined as 100 nM and the “GS SC200” value was found to be 0.01 µM.
For the compound `COc1cc(F)c(F)cc1-c1ccc(OCc2cccc(C(=O)N3CCC[C@@H]3C(=O)O)c2)cc1` [Example 15, (R)-1-[3-(4′,5′-Difluoro-2′-methoxy-biphenyl-4-yloxymethyl)-benzoyl]-pyrrolidine-2-carboxylic acid], the midpoint of the response, the EC50, lay at 220 nM and the “GS SC200” value is 0.05 µM.

Values taken from patent US8039495B2, “Biphenyl carboxylic acids and bioisosteres as glycogen synthase activators” (Hoffman-La Roche Inc., priority 2009, dated 2011).
